Activity calls are given as the source filed them. The rule behind the calls is not given here.
Tested on: rodent carcinogenicity bioassays, tumor incidence
Test: CCRIS carcinogenicity studies
Procedure, shortened: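 NCI-built, expert-reviewed records of carcinogenicity and related test outcomes (mutagenicity, tumor promotion/inhibition) compiled from published and report sources, historical span 1985-2011, not updated.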

SMILES: Clc1cc2c(cc1Cl)Oc1cc(Cl)c(Cl)cc1O2
- carcinogen call (Species: MOUSE, Strain/Sex: B6C3/FEMALE, Route: GAVAGE, Dose: 0, 2.5, 5 UG/KG IN CORN OIL 1/WK FOR 52 WK (STUDY DURATION: 110 WK), Dose: 0, 2.5, 5 UG/KG IN CORN OIL 1/WK FOR 52 WK (STUDY DURATION: 110 WK), Tumor Site: Type of Lesion: LIVER: HEPATOCELLULAR ADENOMA, HEPTOCELLULAR CARCINOMA): active; positive
- carcinogen call (Species: MOUSE, Strain/Sex: B6C3/FEMALE, Route: INTRAPERITONEAL, Dose: 0, 1, 30, 60, UG/KG 1/WK FOR 5 WK BEGINNING AT 10 D OF AGE (STUDY DURATION: 78 WK), Dose: 0, 1, 30, 60, UG/KG 1/WK FOR 5 WK BEGINNING AT 10 D OF AGE (STUDY DURATION: 78 WK), Tumor Site: Type of Lesion: LIVER: HEPATOCELLULAR ADENOMA, THYMUS: LYMPHOMA): active; positive
- carcinogen call (Species: MOUSE, Strain/Sex: B6C3/MALE, Route: GAVAGE, Dose: 0, 2.5, 5 UG/KG IN CORN OIL 1/WK FOR 52 WK (STUDY DURATION: 110 WK), Dose: 0, 2.5, 5 UG/KG IN CORN OIL 1/WK FOR 52 WK (STUDY DURATION: 110 WK), Tumor Site: Type of Lesion: LIVER: HEPATOCELLULAR CARCINOMA): active; positive
- carcinogen call (Species: MOUSE, Strain/Sex: B6C3/MALE, Route: INTRAPERITONEAL, Dose: 0, 1, 30, 60, UG/KG 1/WK FOR 5 WK BEGINNING AT 10 D OF AGE (STUDY DURATION: 78 WK), Dose: 0, 1, 30, 60, UG/KG 1/WK FOR 5 WK BEGINNING AT 10 D OF AGE (STUDY DURATION: 78 WK), Tumor Site: Type of Lesion: LIVER: HEPATOCELLULAR ADENOMA, HEPTOCELLULAR CARCINOMA, THYMUS: LYMPHOMA): active; positive
- carcinogen call (Species: MOUSE, Strain/Sex: B6C3F1/FEMALE, Route: GAVAGE, Dose: 0, 0.04, 0.2, 2.0 UG/KG SUSPENDED IN 9:1 CORN OIL-ACETONE, Dose: 0, 0.04, 0.2, 2.0 UG/KG SUSPENDED IN 9:1 CORN OIL-ACETONE, Tumor Site: Type of Lesion: LIVER: HEPATOCELLULAR CARCINOMA, THYROID GLAND: FOLLICULAR CELL ADENOMA): active; positive
- carcinogen call (Species: MOUSE, Strain/Sex: B6C3F1/MALE, Route: GAVAGE, Dose: 0, 0.01, 0.05, 0.5 UG/KG SUSPENDED IN 9:1 CORN OIL-ACETONE, Dose: 0, 0.01, 0.05, 0.5 UG/KG SUSPENDED IN 9:1 CORN OIL-ACETONE, Tumor Site: Type of Lesion: LIVER: HEPATOCELLULAR CARCINOMA): active; positive
- carcinogen call (Species: MOUSE, Strain/Sex: SWISS/FEMALE, Route: DERMAL, Dose: 0.005 UG IN ACETONE SUSPENSION 3/WK FOR 99 OR 104 WK (STUDY DURATION: 99 OR 104 WK), Tumor Site: Type of Lesion: INTEGUMENTARY SYSTEM (SUBCUTANEOUS TISSUE): FIBROSARCOMA): active; positive
- carcinogen call (Species: MOUSE, Strain/Sex: SWISS/MALE, Route: DERMAL, Dose: 0.001 UG IN ACETONE SUSPENSION 3/WK FOR 99 OR 104 WK (STUDY DURATION: 99 OR 104 WK), Tumor Site: Type of Lesion: INTEGUMENTARY SYSTEM (SUBCUTANEOUS TISSUE): FIBROSARCOMA): equivocal
- carcinogen call (Species: RAT, Strain/Sex: OSBORNE-MENDEL/FEMALE, Route: GAVAGE, Dose: 0, 0.01, 0.05, 0.5 UG/KG SUSPENDED IN 9:1 CORN OIL-ACETONE, Dose: 0, 0.01, 0.05, 0.5 UG/KG SUSPENDED IN 9:1 CORN OIL-ACETONE, Tumor Site: Type of Lesion: LIVER: NEOPLASTIC NODULE): active; positive
- carcinogen call (Species: RAT, Strain/Sex: OSBORNE-MENDEL/MALE, Route: GAVAGE, Dose: 0, 0.01, 0.05, 0.5 UG/KG SUSPENDED IN 9:1 CORN OIL-ACETONE, Dose: 0, 0.01, 0.05, 0.5 UG/KG SUSPENDED IN 9:1 CORN OIL-ACETONE, Tumor Site: Type of Lesion: THYROID GLAND: FOLLICULAR CELL ADENOMA): active; positive
- carcinogen call (Species: RAT, Strain/Sex: SPRAGUE-DAWLEY/FEMALE, Route: ORAL, Dose: 0, 3, 10, 22, 46, 100 NG/KG/D (STUDY DURATION: 2 YRS), Dose: 0, 3, 10, 22, 46, 100 NG/KG/D (STUDY DURATION: 2 YRS), Tumor Site: Type of Lesion: ORAL MUCOSA: SQUAMOUS CELL CARCINOMA): active; positive; highest dose only
- carcinogen call (Species: Rat, Strain/Sex: Harlan Sprague-Dawley/Female (50 dosed animals), Route: Gavage, Dose: 0, 100 ng/kg (Test material solvent: corn oil: acetone (99:1))): inactive; negative
- carcinogen call (Species: Rat, Strain/Sex: Harlan Sprague-Dawley/Female, Route: Gavage, Dose: 0, 3, 10, 22, 46, 100 ng/kg (Test material solvent: corn oil: acetone (99:1)), Dose: 0, 3, 10, 22, 46, 100 ng/kg (Test material solvent: corn oil: acetone (99:1)), Tumor Site: Type of Lesion: Liver: Hepatocellular adenoma (0/53, 0/54, 0/53, 1/53, 13/53, 2/50), Cholangiocarcinoma (0/53, 0/54, 0/53, 1/53, 4/53, 2): active; positive; findings in pancreas and in liver for hepatocholangioma and cholangiom
- carcinogen call (Species: Rat, Strain/Sex: Spartan Sprague Dawley/Female (50/Experimental Group; 86 Controls), Route: Oral, Dose: 0, 1, 10, 100 ng/kg in food, 7 days a wk for 2 yr, Dose: 0, 1, 10, 100 ng/kg in food, 7 days a wk for 2 yr): active; positive

SMILES: O=C(NCC1CCCCN1)c1cc(OCC(F)(F)F)ccc1OCC(F)(F)F (configuration not stated)
- carcinogen call (Species: MOUSE, Strain/Sex: CD-1/MALE,FEMALE, Route: ORAL, Dose: 15, 30, 60 MG/KG/DAY IN DIET FOR 18 MO, Dose: 15, 30, 60 MG/KG/DAY IN DIET FOR 18 MO): inactive; negative
- carcinogen call (Species: RAT, Strain/Sex: WISTAR/MALE,FEMALE, Route: ORAL, Dose: 15, 30, 60 MG/KG/DAY IN DIET FOR 24 MO, Dose: 15, 30, 60 MG/KG/DAY IN DIET FOR 24 MO): inactive; negative

SMILES: CCCCCCCCCCN(C)N=O
- carcinogen call (Species: RAT, Strain/Sex: F344/MALE, Route: GAVAGE, Dose: 0, 108 MG/ML IN CORN OIL 2/WK FOR 30 WK, STUDY DURATION: 110 WK, Dose: 0, 108 MG/ML IN CORN OIL 2/WK FOR 30 WK, STUDY DURATION: 110 WK, Tumor Site: Type of Lesion: LUNG: ADENOCARCINOMA, BLADDER): active; positive

From PubChem BioAssay AID1259411 (Chemical Carcinogenesis Research Information System (CCRIS), 2018)
